# Laboratory results: patent US8858939B2, “Ectopic pregnancy treatment” (Monash University, priority 2009, dated 2014)
# “Also recorded” adds a separate entry of the source.
# Columns and labels:
# JEG-3 cells = assay: CellTiter-Blue cell viability assay, JEG-3 cells; assay type: cell-based, human; conditions: for JEG3 cell death, single agent: CellTitre Blue, increasing doses, 48 and 72 hours, FIGS. 7A, 8A
# Description: (§1) JEG-3 and BeWo cells were cultured in DMEM/F-12 medium containing L-glutamine (Invitrogen) supplemented with 10% fetal calf serum (ICP Biologicals). For treatments with methotrexate (Sigma) or Gefitinib (LC Laboratories) media was replaced with media containing 1% FCS.
# (§2) Viability was analysed using the CellTiter-Blue® Cell Viability Assay (Promega).
# (§3) Two different placenta-derived trophoblast-like human choriocarcinoma cell lines as well as isolated human first trimester extravillous trophoblast cells were incubated with methotrexate±gefitinib at various concentrations for 72 hours. […] The viability of the JEG-3, BeWo and primary first trimester extravillous trophoblast cells after treatment with methotrexate and gefitinib was assessed by the CellTiter-Blue® Cell Viability Assay.
# (§4) JEG-3, BeWo and primary first trimester trophoblast cells were seeded at 5000 cells per well in 96-well plates in DMEM/F-12 culture medium containing 1% foetal bovine serum and 1% penicillin/streptomycin and incubated at 37° C. in a humidified atmosphere of 5% CO2. Approximately 40 hours after seeding, drugs were added to the cells in DMEM/F-12 containing 1% foetal bovine serum. A dose of 100 μM of methotrexate (JEG-3 and primary first trimester trophoblast cells) and 200 μM of methotrexate (syncytialised BeWo cells) was used because this dose decreased cell viability by approximately 50%, as observed in initial dose-response experiments. Cells treated with vehicle (DMSO) served as control cells. In all figures, data are expressed as means±SEM. One-way ANOVA and Student's t test were used to compare means between experimental groups. Statistical significance was assumed at P values<0.05. All experiments have been repeated at least twice.
# IKB-α = assay: Bio-Plex phosphoprotein assay in JEG3 cells, IKB-α; assay type: cell-based, human; conditions: FIG. 12D
# Description: (§5) Cell lysates were analyzed for levels of phosphorylated Akt, p-38 MAPK, IκB-α or Erk1/2 using the Bio-Plex Phosphoprotein Assays (Bio-Rad Laboratories).
# (§6) To further explore how these drugs may be acting together to enhance placental cell death, the inventors investigated the phosphorylation status of Akt, p38 mitogen-activated protein kinase (p38-MAPK), extracellular signal-regulated kinase 1/2 (ERK1/2) and IKappaB Kinase (IKB) in response to various treatments in JEG3 cells. These are key signaling molecules representing major downstream pathways of EGFR (Dutta PR & Maity A (2007) Cancer Lett 254:165-177).
# Akt = assay: Bio-Plex phosphoprotein assay in JEG3 cells, Akt; assay type: cell-based, human; conditions: JEG3 cells treated with EGF, FIG. 12A
# Description: as §5, §6
# syncytialised BeWo cells = assay: CellTiter-Blue cell viability assay, syncytialised (forskolin-treated) BeWo cells; assay type: cell-based, human; conditions: for BeWo cell death, single agent: CellTitre Blue, increasing doses, FIGS. 7B, 8B
# Description: as §1, §2, §3, §4
# The effect of combined addition of methotrexate and gefitinib on cell viability of syncytialised BeWo cells is shown in FIG. 3. […] Methotrexate and gefitinib were administered to syncytialised (forskolin-treated) BeWo cells and cell viability determined after 72 hours by CellTiter-Blue assay.
# [1] = test system: subcutaneous JEG3 xenografts; assay: Subcutaneous JEG-3 xenograft model in SCID mice; assay type: in vivo; conditions: i.p.; for xenograft tumour volume at the doses chosen for combination: MTX 0.04 mg/dose, gefitinib 0.5 mg/dose; for xenograft tumour volume, single agent at different doses: days 7 and 13 (FIG. 11: days 7, 10 and 13), FIGS. 10A, 10B, 11
# Description: 5- to 6-week-old female SCID mice (C.B-17-Igh-1^b-Prkdc^scid; Animal Resources Centre, Perth, Australia) were inoculated with JEG-3 cells (10^6 in 100 μL PBS) subcutaneously. Mice were treated starting at day 7 after JEG-3 injection with gefitinib (0.5-2 mg per dose in 50 μL DMSO), methotrexate (0.04-0.4 mg per dose in 100 μL buffer) or respective vehicle (DMSO/buffer) per intraperitoneal injection (i.p.). Xenograft volume in cubic millimeters was determined using the formula (length×width^2)/2, where length was the longest axis and width was the measurement at right angles to the length. The mice were sacrificed after 19 days, at which time we excised the xenografts, weighed and measured them, and collected blood by cardiac puncture. hCG was quantified in mouse serum using the Elegance hCG ELISA assay (Bioclone). The animal study was reviewed and approved by the Monash University Animal Welfare Committee.
# A subcutaneous JEG-3 xenograft model as established in SCID mice where 1×10^6 JEG-3 cells were injected into the flanks of mice.
# Once palpable, xenograft growth was monitored by measuring tumour length and width every 3 days using digital callipers. Tumour volume in mm^3 was determined using the formula […], where length was the longest axis and width being the measurement at right angles to the length. Data are expressed as average tumour volume±SEM for each treatment group.
# Mean tumour volume was monitored by digital calliper measurements every 3 days. Tumour volume was determined as described above.
# ERK1/2 = assay: Bio-Plex phosphoprotein assay in JEG3 cells, ERK1/2; assay type: cell-based, human; conditions: FIG. 12C
# Description: as §5, §6
# JEG3 cells = assay: xCELLigence real-time analysis of JEG3 cell growth; assay type: cell-based, human; conditions: for decrease in JEG3 growth (xCELLigence): FIG. 6B
# Description: The Real-Time Cell Analyzer (RTCA) SP instrument (Roche Diagnostics GmbH) was placed in a humidified incubator maintained at 37° C. with 5% CO2. Cells were seeded at 625-40,000 cells per well in 96-well plates (E-plate 96, Roche Diagnostics GmbH) in medium containing 1% or 10% serum. Cells were initially monitored once every 2 min for 1 h and then once every hour. After addition of treatment, cells were monitored once every 10 min for 3 h and thereafter once every hour.
# […]. By taking continuous measurements, this assay also tracks cell growth longitudinally. […].
# p38 MAPK = assay: Bio-Plex phosphoprotein assay in JEG3 cells, p38 MAPK; assay type: cell-based, human; conditions: FIG. 12B
# Description: as §5, §6
# developing embryo = conditions: administered for 11 weeks to a person who conceived during a clinical trial; cited from earlier work
# [2] = test system: primary first trimester extravillous trophoblast cells; assay: CellTiter-Blue cell viability assay, primary first trimester extravillous trophoblast cells; assay type: cell-based; conditions: Homo sapiens, 100 μM methotrexate, initial dose-response experiments, read-out: decrease in cell viability
# From the text: 1st trimester placenta was collected from healthy women undergoing elective termination of pregnancy (amenorrhea: 8-10 weeks). This research protocol, including written consent from patients, was approved by the Southern Health Human Research and Ethics Committee. From the 1st trimester placental tissue, primary cytotrophoblast was isolated as previously described (Cartwright J E et al., (2002) Placenta 23:232-235). The inventors confirmed the purity of primary cytotrophoblast cells by immunocytochemistry for cytokeratin 7 as previously described (Paiva P et al., (2007) Endocrinology 148:5566-5572).
# as §2
# as §3, with “Assay. […]” for “Assay.”
# Importantly, the efficacy of methotrexate±gefitinib was also assessed in primary human extravillous trophoblast cells isolated from first trimester placenta.
# EGFR = target: T1, EGFR (Homo sapiens, UniProt P00533); assay: Western blot of EGF induced EGFR phosphorylation in JEG3 cells; assay type: cell-based; conditions: pre-incubation of JEG3 cells, FIG. 5
# T1 construct: endogenous in cells; host or cells: JEG3 cells
# Description: Cells were trypsinised, washed and lysed in RIPA buffer (50 mM Tris, 150 mM NaCl, 1% triton, 0.1% SDS, 1 mM EDTA, 0.1% sodium deoxycholate, protease inhibitor cocktail, sodium vanadate) for 10 min prior to 15 min sonication and centrifugation at 4° C. to remove cellular debris. Lysates were resolved by reducing SDS-PAGE and transferred to PVDF membranes using the iBlot dry transfer system (Invitrogen).
# [3] = test system: caspase-cleaved cytokeratin 18; assay: M30 antibody apoptosis assay (FACS) in JEG3 cells; assay type: cell-based, human; conditions: 72 hours, FIG. 13C
# Description: Cell suspensions were fixed in ice-cold methanol overnight at −20° C., washed in PBS and stained with M30 CytoDeath mouse monoclonal antibody (Sapphire Biosciences), followed by ALEXA® 488-conjugated anti-mouse antibody (Invitrogen). Samples were analyzed on a BD FACS Canto II analyser (BD Biosciences).
# Therefore, the inventors performed FACS sorting using the M30 antibody that detects caspase-cleaved cytokeratin 18, a marker of early apoptosis which persists in cells (Ueno T et al., (2005) Biomed Pharmacother 59 Suppl 2, S359-362). […]. The inventors conclude that combination treatment may increase apoptosis in placental cells.
# T1 sequence (P00533 25-1210): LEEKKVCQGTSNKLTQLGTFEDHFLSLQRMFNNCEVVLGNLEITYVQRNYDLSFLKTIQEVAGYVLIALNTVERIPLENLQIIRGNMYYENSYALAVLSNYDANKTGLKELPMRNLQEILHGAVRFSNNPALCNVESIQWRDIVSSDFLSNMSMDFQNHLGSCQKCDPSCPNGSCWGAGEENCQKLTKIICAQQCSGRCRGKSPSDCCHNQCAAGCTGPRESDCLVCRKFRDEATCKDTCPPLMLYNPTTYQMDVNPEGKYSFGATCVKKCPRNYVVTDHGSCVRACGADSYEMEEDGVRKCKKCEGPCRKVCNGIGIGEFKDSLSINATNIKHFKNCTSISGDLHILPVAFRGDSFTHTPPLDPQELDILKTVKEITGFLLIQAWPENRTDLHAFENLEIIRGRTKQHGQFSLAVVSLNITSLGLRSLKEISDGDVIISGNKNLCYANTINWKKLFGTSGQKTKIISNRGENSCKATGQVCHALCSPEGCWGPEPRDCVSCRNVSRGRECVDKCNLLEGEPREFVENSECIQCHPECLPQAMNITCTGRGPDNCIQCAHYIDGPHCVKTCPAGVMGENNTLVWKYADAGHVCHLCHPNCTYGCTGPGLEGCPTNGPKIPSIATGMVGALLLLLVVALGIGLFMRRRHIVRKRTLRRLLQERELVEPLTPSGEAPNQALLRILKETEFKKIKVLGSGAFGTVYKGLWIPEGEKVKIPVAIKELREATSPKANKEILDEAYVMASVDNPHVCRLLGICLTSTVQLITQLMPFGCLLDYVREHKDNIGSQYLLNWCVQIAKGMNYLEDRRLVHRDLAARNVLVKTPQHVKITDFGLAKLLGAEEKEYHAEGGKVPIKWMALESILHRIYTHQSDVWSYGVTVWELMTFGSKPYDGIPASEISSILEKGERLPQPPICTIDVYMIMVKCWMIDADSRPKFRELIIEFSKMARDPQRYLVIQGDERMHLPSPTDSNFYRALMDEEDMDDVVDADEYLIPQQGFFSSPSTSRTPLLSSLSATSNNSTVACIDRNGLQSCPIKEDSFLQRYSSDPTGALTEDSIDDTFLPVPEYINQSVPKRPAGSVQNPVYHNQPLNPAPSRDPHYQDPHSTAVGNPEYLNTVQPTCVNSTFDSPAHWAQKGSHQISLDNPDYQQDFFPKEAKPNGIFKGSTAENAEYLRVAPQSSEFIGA
compound,measurement,setting,value
"COc1cc2ncnc(Nc3ccc(F)c(Cl)c3)c2cc1OCCCN1CCOCC1 [gefitinib, N-(3-chloro-4-fluorophenyl)-7-methoxy-6-(3-morpholinopropoxy)quinazolin-4-amine]","JEG3 cell death, single agent",JEG-3 cells,not
same,"JEG3 cell death, single agent",JEG-3 cells; listed as Gefitinib,little or no cell death
same,EGF induced IKB-α phosphorylation,IKB-α,potently blocked
same,Akt phosphorylation,Akt,potently blocked
same,"BeWo cell death, single agent",syncytialised BeWo cells,little or no cell death
same,xenograft tumour volume at the doses chosen for combination,[1],some reduction
same,"xenograft tumour volume, single agent at different doses",[1],potent dose dependent reductions; also recorded: regresses
same,EGF induced ERK1/2 phosphorylation,ERK1/2,potently blocked
same,decrease in JEG3 growth (xCELLigence),JEG3 cells; gefitinib 8 μM,small and transient
same,decrease in JEG3 growth (xCELLigence),JEG3 cells; gefitinib 2 or 4 μM,no
same,EGF induced p38-MAPK phosphorylation,p38 MAPK,potently blocked
CS(=O)(=O)CCNCc1ccc(-c2ccc3ncnc(Nc4ccc(OCc5cccc(F)c5)c(Cl)c4)c3c2)o1 [lapatinib],effects on the developing embryo,developing embryo,no ill effects on the developing embryo
CN(Cc1cnc2nc(N)nc(N)c2n1)c1ccc(C(=O)N[C@@H](CCC(=O)O)C(=O)O)cc1 [methotrexate],"JEG3 cell death, single agent",JEG-3 cells; listed as MTX,in a dose dependent manner
same,"JEG3 cell death, single agent",JEG-3 cells; listed as methotrexate (MTX),kills JEG3 cells in a dose response manner
same,cytotoxicity at 100 µM,"JEG-3 cells; Homo sapiens, 100 μM methotrexate, JEG-3 cells, initial dose-response experiments, read-out: decrease in cell viability",~50%
same,cytotoxicity at 100 µM,[2],~50%
same,Akt phosphorylation,Akt,significant increase
same,"BeWo cell death, single agent",syncytialised BeWo cells,in a dose dependent manner
same,cytotoxicity at 200 µM,"syncytialised BeWo cells; Homo sapiens, 200 μM methotrexate, syncytialised BeWo cells, initial dose-response experiments, read-out: decrease in cell viability",~50%
same,EGF induced EGFR phosphorylation,EGFR,partially inhibited
same,xenograft tumour volume at the doses chosen for combination,[1],some reduction
same,"xenograft tumour volume, single agent at different doses",[1]; listed as MTX,decrease in xenograft tumour volume was observed with increasing doses
same,"xenograft tumour volume, single agent at different doses",[1]; listed as Methotrexate (MTX),regresses
same,"M30 staining (caspase-cleaved cytokeratin 18, early apoptosis)",[3],increased expression
same,JEG3 cell growth (xCELLigence),"JEG3 cells; FIG. 6, combination: gefitinib doses added to a fixed dose of MTX",decreased JEG3 cell growth in a dose dependent manner
